Several values for one entry are separate records, joined by “and”; a condition that tells them apart may be missing. Identical values can stand only once.
Assay: Determination of biodistribution of radiolabeled compounds in rats after caudal vein administration
Format: in vivo, SD strain rats
Details: for Biodistribution, Blood / Biodistribution, Femur and Tibia / Biodistribution, Urine / Biodistribution, Kidney / Biodistribution, Liver: SD-rats female, n = 3, caudal vein
Description: SD strain rats (female, age in 8-9 weeks, n=3) were used with free access to water and food ad libitum, and anesthetized with Ravonal, (a trade name of thiopental sodium, manufactured by Tanabe Seiyaku Co., Ltd.), then the test sample solution was administered to the caudal vein. The test rats were killed by bleeding during the blood samples were taken from the abdominal aorta at each times of sampling after the administration. The organs of interest were excised. After measured the weights of these samples, the radioactivities were determined, and biodistributions were calculated. The results of determination of biodistribution relating to the labeled compounds obtained in Examples 1, 2 and 4 and the labeled compounds of methanediphosphonic acid (MDP) used as reference examples are shown in Tables 3 to 7. Determination results are indicated as %ID/g, and determination results of urine are indicated as %ID.

[1] = 15 Minutes after administration
[2] = 120 Minutes after administration

| Biodistribution, Blood [1] | Biodistribution, Femur and Tibia [1] | Biodistribution, Urine [1] | Biodistribution, Femur and Tibia [2] | Biodistribution, Urine [2] | Biodistribution, Kidney [1] [% ID/g] | Biodistribution, Liver [1] [% ID/g] | Biodistribution, Blood [2] [% ID/g] | Biodistribution, Kidney [2] [% ID/g] | Biodistribution, Liver [2] [% ID/g] | change of accumulation level to the bone (in words) (SD-rats, from 15 minutes to 120 minutes after the administration) | accumulation to the bone (in words) (SD-rats, summary of Tables 3-8) | blood clearance (in words) (SD-rats, summary of Tables 3-8) | urinary excretion (in words) (SD-rats, summary of Tables 3-8) | Structure (SMILES) |
| --- | --- | --- | --- | --- | --- | --- | --- | --- | --- | --- | --- | --- | --- | --- |
| 0.717 ± 0.159 % ID/g | 3.423 ± 0.302 % ID/g | 19.55 ± 0.72 % ID | 3.714 ± 0.474 % ID/g | 41.54 ± 4.19 % ID | 2.751 ± 0.951 | 0.495 ± 0.078 | 0.042 ± 0.006 | 1.070 ± 0.539 | 0.380 ± 0.037 | did not significantly vary | accumulated to the bone quickly | relatively rapid | rapidly excreted into urine | O=C(NCC(P(=O)(O)O)P(=O)(O)O)c1ccccc1I |
| 0.599 ± 0.103 % ID/g | 3.014 ± 0.377 % ID/g | 29.69 ± 0.14 % ID | 3.552 ± 0.327 % ID/g | 48.15 ± 1.50 % ID | 3.225 ± 0.543 | 0.159 ± 0.009 | 0.089 ± 0.037 | 0.762 ± 0.279 | 0.068 ± 0.003 | – | – | – | – | O=C(O)CNC(=O)CC(P(=O)(O)O)P(=O)(O)O (99mTc complex, metal not drawn) [N-(3,3-diphosphonopropionyl)glycine] |

| Structure (SMILES) | Biodistribution, Blood [1] | Biodistribution, Femur and Tibia [1] | Biodistribution, Urine [1] | Biodistribution, Femur and Tibia [2] | Biodistribution, Urine [2] | Biodistribution, Kidney [1] [% ID/g] | Biodistribution, Liver [1] [% ID/g] | Biodistribution, Blood [2] [% ID/g] | Biodistribution, Kidney [2] [% ID/g] | Biodistribution, Liver [2] [% ID/g] | change of accumulation level to the bone (in words) (SD-rats, from 15 minutes to 120 minutes after the administration) | accumulation to the bone (in words) (SD-rats, summary of Tables 3-8) | blood clearance (in words) (SD-rats, summary of Tables 3-8) | urinary excretion (in words) (SD-rats, summary of Tables 3-8) |
| --- | --- | --- | --- | --- | --- | --- | --- | --- | --- | --- | --- | --- | --- | --- |
| O=C(O)CN(CCN(CC(=O)O)CC(=O)O)CCN(CC(=O)O)CC(=O)NCC(P(=O)(O)O)P(=O)(O)O [3,6-bis(carboxymethyl)-9-(((2,2-diphosphonoethyl)carbamoyl)m] [3,6-bis(carboxymethyl)-9-(((2,2-diphosphonoethyl)carbamoyl)methyl)-3,6,9-triazaundecanedicarboxylic acid] | 0.519 ± 0.025 % ID/g and 0.621 ± 0.239 % ID/g and 0.463 ± 0.056 % ID/g | 2.777 ± 0.311 % ID/g and 2.417 ± 0.495 % ID/g and 2.643 ± 0.182 % ID/g | 26.04 ± 9.29 % ID and 28.64 ± 5.55 % ID and 37.996 ± 5.927 % ID | 2.739 ± 0.385 % ID/g and 3.089 ± 0.340 % ID/g and 2.922 ± 0.187 % ID/g | 40.31 ± 9.02 % ID and 54.91 ± 1.96 % ID and 54.927 ± 4.073 % ID | – | – | – | – | – | – | – | – | – |

Source: US6607710B1, “Bisphosphonic acid derivative and compound thereof labeled with radioactive nuclide” (Nihon Medi-Physics Co., Ltd., priority 1999, dated 2003)
